From ChEMBL document CHEMBL1143760, “Stereoselective synthesis of beta-1-C-substituted 1,4-dideoxy-1,4-imino-D-galactitols and evaluation as UDP-galactopyranose mutase inhibitors” (Bioorg Med Chem, 2007)

Target: T1, UDP-galactopyranose mutase (Escherichia coli K-12) (UniProt P37747)
T1 sequence (whole entry): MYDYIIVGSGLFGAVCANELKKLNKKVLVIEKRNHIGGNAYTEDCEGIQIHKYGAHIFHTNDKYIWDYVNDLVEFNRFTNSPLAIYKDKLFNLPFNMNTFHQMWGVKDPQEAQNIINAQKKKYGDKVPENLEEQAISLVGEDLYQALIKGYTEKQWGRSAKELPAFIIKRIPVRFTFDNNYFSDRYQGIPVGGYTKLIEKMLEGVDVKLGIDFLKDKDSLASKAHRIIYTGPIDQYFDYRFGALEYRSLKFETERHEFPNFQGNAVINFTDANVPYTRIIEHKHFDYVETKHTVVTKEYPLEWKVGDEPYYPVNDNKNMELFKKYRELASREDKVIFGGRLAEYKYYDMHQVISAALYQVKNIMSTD
Assay: Inhibition of Escherichia coli UDP galactopyranose mutase at 25 mM

inhibition	SMILES
< 50%	O=C1CC[C@H]2[C@H](O)[C@@H](O)[C@H]([C@H](O)CO)N12
< 50%	CCOC(=O)CC[C@@H]1N[C@@H]([C@H](O)CO)[C@H](O)[C@H]1O

SMILES	inhibition
OC[C@@H](O)[C@H]1[C@H](O)[C@@H](O)[C@@H]2CCCN12	< 50%
